Laboratory results: PubChem BioAssay AID1963871 (Molecular Pharmacology Branch, DTP, NCI, 2024)

Test system: KRAS-mutant PDC multicell tumor spheroid viability
Experiment: Anticancer human tumor 521955-158-R2-J5-PDC patient-derived pancreatic carcinoma cell line growth inhibition [KRAS2]
Conditions: for IC50: curve of first compound; for viability, T/C: stronger effect = lower value
Text: Multicellular complex tumor spheroid response to RAS pathway inhibitors in combination with a targeted agents in patient-derived cell lines with oncogenic KRAS variants from multiple cancer types
A high-throughput screen of multi-cell type tumor spheroids was designed to identify active combinations of targeted small molecules and KRAS pathway inhibitors. Complex spheroids include a stromal component modeled by human endothelial cells (HUVEC) and fibroblasts modeled by human mesenchymal stem cells (MSCs). The concentration ranges selected for each drug and investigational agent were based upon clinically achievable concentrations if the clinical Cmax of the agent was known.
Compounds. The drugs and investigational agents: BI-3406 (NSC825286), BAY-293 (NSC824723), batoprotafib (TNO155; NSC825523), sotorasib (AMG 510; NSC818433), MRTX1257 (NSC819558), elimusertib (BAY 1895344; NSC800525), molibresib (GSK525762; NSC774829), temuterkib (LY3214996; NSC803410), venetoclax (NSC766270), alisertib (NSC759677), olaparib (NSC753686), talazoparib (NSC767125), erdafitinib (NSC781556), ipatasertib (NSC767898), cabozantinib (NSC761068), nintedanib (NSC756659), abemaciclib (NSC768073), docetaxel (NSC628503), trametinib (NSC758246), and sapanisertib (NSC764658) were obtained from the National Cancer Institute (NCI) Developmental Therapeutics Program Chemical Repository. The FDA-approved anticancer drug set is available from the Developmental Therapeutics Program. […] The stock solutions were prepared in dimethyl sulfoxide (DMSO, Sigma-Aldrich, St. Louis, MO, cat. D2650) at 800-fold the tested concentration and stored at -70 degrees C prior to their use. All drugs and investigational agents were tested over a range starting from a high concentration at or near the clinical Cmax and decreasing in half-log increments. If the clinical Cmax for an agent had not been determined, the highest concentration tested was 10 microM.
Cell Culture. All cells were maintained in an incubator at 37 degrees C and 5% CO2 with 95% humidity. The PDC lines were cultured according to standard operating procedures established by the NCI PDMR (https://pdmr.cancer.gov/sops/default.htm). Briefly, all PDCs were thawed and cultured in Matrigel-coated flasks prepared with a working solution of 1X Ham's F-12 nutrient mix, without supplementation (Invitrogen, Waltham, MA, cat. 11765054), 100 U/mL penicillin-streptomycin (Invitrogen, cat. 15140122), and 2.5% Matrigel (Corning Inc., Corning, NY, cat. 354248) for the first three passages. All PDCs were cultured in complete DMEM/F-12 media containing advanced DMEM/F-12 (Invitrogen, cat. 12634028), 4.9% defined fetal bovine serum, heat inactivated (HyClone Laboratories Inc., Logan, UT, cat. SH30070.03HI), 389 ng/mL hydrocortisone (Sigma-Aldrich, cat. H4001), 9.7 ng/mL human EGF recombinant protein (Invitrogen, cat. PHG0313), 23.4 microg/mL adenine (Sigma-Aldrich, cat. A2786), 97.3 U/mL penicillin-streptomycin (Invitrogen, cat. 15140122), 1.9 mM L-glutamine (Invitrogen, cat. 25030081), and 9.7 microM Y-27632 dihydrochloride (Tocris Bioscience, Bristol, United Kingdom, cat. 1254). The PDCs were cultured in complete DMEM/F12 media without 9.7 microM Y-27632 dihydrochloride for at least two passages prior to the screen. The established cell line HOP-62 was cultured in RPMI 1640 medium, HEPES (Invitrogen, cat. 22400105) with 10% defined fetal bovine serum (HyClone Laboratories Inc., cat. SH30070.03) and 2 mM L-glutamine (Invitrogen, cat. 25030081). The pooled donor HUVEC were cultured in endothelial cell growth medium 2 (PromoCell, Heidelberg, Germany, cat. C-22011) and the hMSC were cultured in mesenchymal stem cell growth medium 2 (PromoCell, cat. C-28009). For all experiments, HUVEC and hMSC were used at passages </=5, while the malignant cell lines were used at passages </=15. […]

[1] = second compound 0.1 µM, first compound 0.01 µM
[2] = second compound 0.1 µM, first compound 0.0316 µM
[3] = second compound 0.1 µM, first compound 0.1 µM
[4] = second compound 0.1 µM, first compound 0.316 µM
[5] = second compound 0.1 µM, first compound 1 µM
[6] = second compound 0.1 µM, first compound 3.16 µM
[7] = second compound 0.316 µM, first compound 0.01 µM
[8] = second compound 0.316 µM, first compound 0.0316 µM
[9] = second compound 0.316 µM, first compound 0.1 µM
[10] = second compound 0.316 µM, first compound 0.316 µM
[11] = second compound 0.316 µM, first compound 1 µM
[12] = second compound 0.316 µM, first compound 3.16 µM
[13] = second compound 1 µM, first compound 0.01 µM
[14] = second compound 1 µM, first compound 0.0316 µM
[15] = second compound 1 µM, first compound 0.1 µM
[16] = second compound 1 µM, first compound 0.316 µM
[17] = second compound 1 µM, first compound 1 µM
[18] = second compound 1 µM, first compound 3.16 µM
[19] = second compound 3.16 µM, first compound 0.01 µM
[20] = second compound 3.16 µM, first compound 0.0316 µM
[21] = second compound 3.16 µM, first compound 0.1 µM
[22] = second compound 3.16 µM, first compound 0.316 µM
[23] = second compound 3.16 µM, first compound 1 µM
[24] = second compound 10 µM, first compound 0.01 µM
[25] = second compound 10 µM, first compound 0.0316 µM
[26] = second compound 10 µM, first compound 0.1 µM
[27] = second compound 10 µM, first compound 0.316 µM
[28] = second compound 10 µM, first compound 1 µM
[29] = second compound 10 µM, first compound 3.16 µM
[30] = second compound 0.1 µM, first compound 10 µM
[31] = second compound 0.316 µM, first compound 10 µM
[32] = second compound 1 µM, first compound 10 µM
[33] = second compound 3.16 µM, first compound 3.16 µM
[34] = second compound 3.16 µM, first compound 10 µM
[35] = second compound 10 µM, first compound 10 µM
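Note: viability read after seven days of drug exposure.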

| Compound | IC50 (second compound 0.1 µM) [nM] | IC50 (second compound 0.316 µM) [nM] | IC50 (second compound 1 µM) [nM] | IC50 (second compound 3.16 µM) [nM] | IC50 (second compound 10 µM) [nM] | viability, T/C [2] [%] | viability, T/C [3] [%] | viability, T/C [4] [%] | viability, T/C [5] [%] | viability, T/C [8] [%] | viability, T/C [9] [%] | viability, T/C [10] [%] | viability, T/C [11] [%] | viability, T/C [14] [%] | viability, T/C [15] [%] | viability, T/C [16] [%] | viability, T/C [17] [%] | viability, T/C [20] [%] | viability, T/C [21] [%] | viability, T/C [22] [%] | also measured |
| --- | --- | --- | --- | --- | --- | --- | --- | --- | --- | --- | --- | --- | --- | --- | --- | --- | --- | --- | --- | --- | --- |
| CC1COCCN1c1cc(-c2ccnn2C)c2ccnc(-c3ccn[nH]3)c2n1 (stereo not drawn) + C=CC(=O)N1CCN(c2nc(=O)n(-c3c(C)ccnc3C(C)C)c3nc(-c4c(O)cccc4F)c(F)cc23)C(C)C1 | 30.2 | 40.3 | 30.1 | 24.3 | 11.5 | 47.9 | 10.5 | 13.5 | 24.1 | 58.5 | 11.4 | 13 | 20.3 | 47.6 | 10.5 | 13.6 | 25.6 | 41.3 | 11.6 | 13.7 | viability, T/C [1]: 101%; viability, T/C [6]: 26.9%; viability, T/C [7]: 114%; viability, T/C [12]: 28%; viability, T/C [13]: 102%; viability, T/C [18]: 29%; viability, T/C [19]: 79.2%; viability, T/C [23]: 22.6%; viability, T/C [24]: 54.1%; viability, T/C [25]: 18.1%; viability, T/C [26]: 13.2%; viability, T/C [27]: 18.1%; viability, T/C [28]: 23.4%; viability, T/C [29]: 25.5% |
| CCN1CCN(Cc2ccc(Nc3ncc(F)c(-c4cc(F)c5nc(C)n(C(C)C)c5c4)n3)nc2)CC1 + C=CC(=O)N1CCN(c2nc(=O)n(-c3c(C)ccnc3C(C)C)c3nc(-c4c(O)cccc4F)c(F)cc23)C(C)C1 | > 1000 | > 1000 | > 1000 | > 1000 | > 1000 | 110 | 100 | 122 | 97.2 | 91.1 | 101 | 117 | 109 | 94.5 | 95.5 | 113 | 96.7 | 91.8 | 80.5 | 88.4 | viability, T/C (second compound 0.1 µM, first compound 0.00316 µM): 113%; viability, T/C [1]: 100%; viability, T/C (second compound 0.316 µM, first compound 0.00316 µM): 114%; viability, T/C [7]: 108%; viability, T/C (second compound 1 µM, first compound 0.00316 µM): 112%; viability, T/C [13]: 108%; viability, T/C (second compound 3.16 µM, first compound 0.00316 µM): 89.2%; viability, T/C [19]: 99.4%; viability, T/C [23]: 88.8%; viability, T/C (second compound 10 µM, first compound 0.00316 µM): 81%; viability, T/C [24]: 88.3%; viability, T/C [25]: 89.4%; viability, T/C [26]: 74.6%; viability, T/C [27]: 66.7%; viability, T/C [28]: 50.7% |
| CCNC(=O)CC1N=C(c2ccc(Cl)cc2)c2cc(OC)ccc2-n2c(C)nnc21 (stereo not drawn) + C=CC(=O)N1CCN(c2nc(=O)n(-c3c(C)ccnc3C(C)C)c3nc(-c4c(O)cccc4F)c(F)cc23)C(C)C1 | 474 | 1180 | 1100 | 741 | 169 | 99.4 | 93.4 | 55.3 | 41.1 | 119 | 98.4 | 72.2 | 50 | 120 | 109 | 77 | 52.3 | 101 | 86.7 | 63 | viability, T/C [6]: 39.9%; viability, T/C [30]: 35.7%; viability, T/C [12]: 43.7%; viability, T/C [31]: 37.1%; viability, T/C [18]: 38.9%; viability, T/C [32]: 35.8%; viability, T/C [23]: 45.4%; viability, T/C [33]: 39.1%; viability, T/C [34]: 37.5%; viability, T/C [25]: 66.5%; viability, T/C [26]: 58.6%; viability, T/C [27]: 39.4%; viability, T/C [29]: 29%; viability, T/C [35]: 31.1% |
| Cn1nccc1Nc1nccc(-c2cc3c(s2)C(C)(C)N(CCN2CCOCC2)C3=O)n1 + C=CC(=O)N1CCN(c2nc(=O)n(-c3c(C)ccnc3C(C)C)c3nc(-c4c(O)cccc4F)c(F)cc23)C(C)C1 | 1610 | 2020 | 2910 | 2960 | 1010 | 98.9 | 94.9 | 76.9 | 59.4 | 125 | 107 | 76.9 | 58.5 | 117 | 110 | 85.3 | 67.5 | 110 | 116 | 84.6 | viability, T/C [6]: 37.9%; viability, T/C [30]: 24.2%; viability, T/C [12]: 47%; viability, T/C [31]: 36.7%; viability, T/C [18]: 42.7%; viability, T/C [32]: 47.5%; viability, T/C [23]: 64.2%; viability, T/C [33]: 54.1%; viability, T/C [34]: 40.5%; viability, T/C [25]: 78.5%; viability, T/C [26]: 78.1%; viability, T/C [27]: 61.3%; viability, T/C [28]: 52.8%; viability, T/C [29]: 41.1%; viability, T/C [35]: 43.1% |
